Source: patent US20160008490A1, “METAL CHELATE COMPOUNDS FOR BINDING TO THE PLATELET SPECIFIC GLYCOPROTEIN IIB/IIIA” (BAYER PHARMA AKTIENGESELLSCHAFT, priority 2013, published 2016)

Experiments:
[1] = system: human activated platelets; assay: Binding of investigated compounds to human activated platelets (ICP-MS of Gd in pellet and supernatant); assay type: cell-based; settings: incubation concentration 1 μM molecule
Protocol: For each experiment fresh blood was taken from a volunteer using 10 mL citrate-tubes (Sarstedt S-Monovette 02.1067.001, 10 mL, Citrate 3.13%). The 10 mL citrate-tubes were carefully inverted 10 times to mix blood and anticoagulant. The tubes were stored in an incubator at a temperature of 37° C. until centrifugation (Heraeus miniTherm CTT with integrated rotation- and turning device, turning speed: 19 rotations per minute, Heraeus Instruments GmbH, Hanau/Germany).
For plasma preparation tube centrifugation was carried out for 15 minutes at 1811 g at room temperature (Eppendorf, Centrifuge 5810R). Blood was centrifuged 15 minutes at 201 g at room temperature to produce platelet-rich plasma. The tubes were stored for 30 min at room temperature to get a better separation. The separated platelet-rich plasma was finally centrifuged for further 3 min at 453 g to remove the remaining erythrocytes. The platelet-rich plasma was activated using a final concentration of 5 μM Adenosindiphosphate (ADP, Sigma). The activated platelet-rich plasma was incubated 20 minutes with different concentrations of gadolinium-labeled compound and subsequently was centrifuged 3 minutes at 1360 g. 20 μL of incubation solution was taken to determine the concentration (n=3). […] The gadolinium concentration of supernatant and pellet was determined using an inductively coupled plasma mass spectrometry (ICP-MS Agilent 7500a).
The results for incubation concentration of 1 μM gadolinium-labeled compound are summarized in table 3 (in comparison to Gadovist® standard dose: 100 μmol Gd/kg body weight).

[2] = system: in vitro platelet-rich thrombi; assay: Magnetic resonance imaging of in vitro platelet-rich thrombi; assay type: cell-based, human; settings: 10 μmol substance/L, 20 min incubation, washed three times with plasma, 1.5 T, versus control thrombus without contrast agent
Protocol: Magnetic resonance imaging of in vitro platelet-rich thrombi and incubation solution (example 8) using a 3D turbo spin echo sequence (1.5 T, Siemens Avanto, small extremity coil, TR 1050 ms, TE 9.1 ms, 0.5×0.5×0.6 mm^3). In FIG. 2a an in vitro control thrombus without the addition of a contrast agent is shown. The signal intensity of the control thrombus is slightly higher than the surrounding medium but clearly lower than the signal of the in vitro thrombus which was incubated with example 8 as depicted in FIG. 2b. In FIG. 2c the incubation solution with a final concentration of 10 μmol substance/L of example 8 in human plasma is represented. The signal intensity is higher than the surrounding plasma solutions in the in vitro platelet-rich thrombi 2a and 2b.
The in vitro thrombus in FIG. 2b is incubated with the solution which is depicted in FIG. 2c. After 20 min incubation period the thrombi was washed three times with plasma solution.
The MRI imaging experiments were done with platelet-rich plasma. The preparation of platelet-rich plasma using fresh blood is described in L K Jennings et. al. Blood 1986 1, 173-179 but modified with regard to centrifugation procedure. Briefly, fresh blood was taken from a volunteer using 10 mL citrate-tubes (Sarstedt S-Monovette 02.1067.001, 10 mL, Citrate 3.13%). The 10 mL citrate-tubes were carefully inverted 10 times to mix blood and anticoagulant. […]

CC(C(=O)NCC(=O)NC[C@H](NC(=O)CNC(=O)C(C)N1CCN(CC(=O)O)CCN(CC(=O)O)CCN(CC(=O)O)CC1)C(=O)NC[C@H](NC(=O)[C@H](CNC(=O)CNC(=O)C(C)N1CCN(CC(=O)O)CCN(CC(=O)O)CCN(CC(=O)O)CC1)NC(=O)CNC(=O)C(C)N1CCN(CC(=O)O)CCN(CC(=O)O)CCN(CC(=O)O)CC1)C(=O)NCCCCc1cccc(C#Cc2cncc([C@H](CC(=O)O)NC(=O)[C@@H]3CCCN(C(=O)CCC4CCNCC4)C3)c2)c1)N1CCN(CC(=O)O)CCN(CC(=O)O)CCN(CC(=O)O)CC1 (stereo partly drawn) [Example 8]
Concentration within platelet pellet ([1]; ADP-activated platelet-rich plasma, 20 minutes, pellet washed): 26.7 ± 1.5 μM Gd
pellet/supernatant ([1]; ratio of Gd concentration): 254 ± 26 (n = 3)
signal intensity of incubated in vitro thrombus (T1-weighted 3D TSE MRI) [2]: clearly higher signal than the control thrombi
